How the values were obtained:
[1] = tested on: NCI-H460 Human large cell lung cancer cell strain; experiment: In vitro anti-proliferation of tumor cells (CCK-8), NCI-H460; assay type: cell-based; settings: NCI-H460, 72 hours
Description: (§1) Experimental Example 2: Determination of the Compounds According to the Present Invention for IC50 of the In Vitro Anti-Proliferation of Tumor Cells
NCI-H460 Human large cell lung cancer cell strain (purchased from Shanghai Institute of Cell Biology, Chinese Academy of Sciences);
(§2) Preparation of a compound: the compound was diluted with DMSO to a final concentration of 10 mM.
(§3) a) Cells in logarithmic growth phase were collected, counted, and re-suspended in complete medium. The concentration of cells was adjusted to a suitable concentration (determined depending on the result of optimization experiment of cell density), and the cells were seeded to a 96-well plate at 100 μl cell suspension per well. The cells were incubated in an incubator at 37° C., 100% relative humidity, 5% CO2 for 24 hours.
(§4) b) A test compound was diluted with the culture medium to 500 μM, and then gradient dilution was performed for 8 times. Cells were added at 25 μl/well. The final concentrations of the compound was in a range from 100 μM and 0 μM, 4-fold diluted, including 10 concentrations.
(§5) c) The cells were incubated in an incubator at 37° C., 100% relative humidity, 5% CO2 for 72 hours.
(§6) d) The culture medium was withdraw and discarded, the complete medium containing 10% CCK-8 was added, and then the cells were incubated in an incubator at 37° C. for 2-4 hours.
(§7) IC50 curve was fitted and IC50 value was calculated by professional software GraphPad Prism 5.0.
(§8) In the experiment, the compounds according to the present invention were determined for their IC50 values of in vitro anti-proliferation of tumor cell strains. The final concentrations of the compounds was in a range from 100 μM and 0 μM, 4-fold diluted, including 10 concentrations.

[2] = tested on: SK-OV-3 human ovarian cancer cell strain; experiment: In vitro anti-proliferation of tumor cells (CCK-8), SK-OV-3; assay type: cell-based; settings: SK-OV-3, 72 hours
Description: as §1
SK-OV-3 human ovarian cancer cell strain (purchased from Shanghai Institute of Cell Biology, Chinese Academy of Sciences);
as §2, §3, §4, §5, §6, §7, §8

[3] = tested on: MDA-MB-231 human mammary cancer cell strain; experiment: In vitro anti-proliferation of tumor cells (CCK-8), MDA-MB-231; assay type: cell-based; settings: for IC50: Homo sapiens, MDA-MB-231, 72 hours, CCK-8
Description: as §1
MDA-MB-231 human mammary cancer cell strain (purchased from Shanghai Institute of Cell Biology, Chinese Academy of Sciences);
as §2, §3, §4, §5, §6, §7, §8

[4] = tested on: A498 human renal carcinoma cell strain; experiment: In vitro anti-proliferation of tumor cells (CCK-8), A498; assay type: cell-based; settings: A498, 72 hours
Description: as §1
A498 human renal carcinoma cell strain (purchased from Shanghai Institute of Cell Biology, Chinese Academy of Sciences);
as §2, §3, §4, §5, §6, §7, §8

[5] = tested on: HCT116 human colon cancer cell strain; experiment: In vitro anti-proliferation of tumor cells (CCK-8), HCT-116; assay type: cell-based; settings: HCT-116, 72 hours
Description: as §1
HCT116 human colon cancer cell strain (purchased from Shanghai Institute of Cell Biology, Chinese Academy of Sciences);
as §2, §3, §4, §5, §6, §7, §8

[6] = tested on: HL-60 human acute myeloid leukemia cell strain; experiment: In vitro anti-proliferation of tumor cells (CCK-8), HL-60; assay type: cell-based; settings: HL-60, 72 hours
Description: as §1
HL-60 human acute myeloid leukemia cell strain (purchased from Shanghai Institute of Cell Biology, Chinese Academy of Sciences);
as §2, §3, §4, §5, §6, §7, §8

[7] = tested on: 786-O human renal clear cell carcinoma cell strain; experiment: In vitro anti-proliferation of tumor cells (CCK-8), 786-O; assay type: cell-based; settings: 786-0, 72 hours
Description: as §1
786-O human renal clear cell carcinoma cell strain (purchased from Shanghai Institute of Cell Biology, Chinese Academy of Sciences);
as §2, §3, §4, §5, §6, §7, §8

[8] = Pharmacokinetics in mice; assay type: in vivo; settings: female, plasma, CD-1 mouse; for bioavailability: PO 5 mg/kg vs IV 1 mg/kg, read-out: F (oral bioavailability); for AUC(0-t): read-out: AUClast (area under the curve)
Description: Administration route: intravenous injection (IV); per os (PO).
Fasting condition: free access to water, no fasting.
The mice were weighed before administration, and the administration volume was calculated based on their body weights (IV group: 4 mL/kg; PO group: 10 mL/kg).
Administration route and dose: Intravenous (IV) group: 1 mg/kg; Oral (PO) group: 5 mg/kg.
Animal grouping: 3 mice/group, an IV group and a PO group for each test compound.
After administration, 30 μL whole blood was collected from rim of the eyes of mice in the IV group at each pre-determined time point (5 min, 15 min, 30 min, 1 h, 2 h, 4 h, 8 h, 24 h), and 30 μL whole blood was collected from rim of the eyes of mice in the PO group at each pre-determined time point (15 min, 30 min, 1 h, 2 h, 4 h, 8 h, 24 h). The whole blood was centrifuged (6,000 rpm, 5 min) to get blood plasma. All the blood plasma samples were stored in a refrigerator of −80° C. for further analysis.
Conditions of LC/MS/MS was as follows:
Pharmacokinetic parameters were estimated according to non-compartment model (calculated by WinNonlin software): […]
IV paramater: t1/2 (hr); C0 (ng/mL); AUClast (hr*ng/mL); AUCInf (hr*ng/mL); AUC Extr (%); Vz (L/kg); Vss (L/kg); CL (mL/min/kg); MRT (hr).
PO parameter: t1/2 (hr); tmax (hr); Cmax (ng/mL); AUClast (hr*ng/mL); AUCInf (hr*ng/mL); AUC Extr (%); MRT (hr); AUC/D (hr*mg/mL); F (%).

[9] = tested on: HepG2 human liver cancer cell strain; experiment: In vitro anti-proliferation of tumor cells (CCK-8), HepG2; assay type: cell-based; settings: HepG2, 72 hours
Description: as §1
HepG2 human liver cancer cell strain (purchased from Shanghai Institute of Cell Biology, Chinese Academy of Sciences);
as §2, §3, §4, §5, §6, §7, §8

[10] = tested on: MiaPaCa-2 human pancreatic cancer cell strain; experiment: In vitro anti-proliferation of tumor cells (CCK-8), MiaPaCa-2; assay type: cell-based; settings: MIA PaCa-2, MiaPaCa-2, 72 hours
Description: as §1
MiaPaCa-2 human pancreatic cancer cell strain (purchased from American ATCC);
as §2, §3, §4, §5, §6, §7, §8

[11] = PO 5 mg/kg, average of three mice

Row | IC50 [1] [µM] | IC50 [2] [µM] | IC50 [3] [µM] | IC50 [4] [µM] | IC50 [5] [µM] | IC50 [6] [µM] | IC50 [7] [µM] | bioavailability [8] [%] | AUC(0-t) [8, 11] [ng·h/mL] | IC50 [9] [µM] | IC50 [10] [µM] | IC50 as fold of that of Sorafenib ([3]; MDA-MB-231 cell line) [fold] | Cmax ([8]; PO 5 mg/kg, average of three mice, read-out: Cmax (peak concentration)) [ng/mL] | Compound
1 | 1.27 | 17.9 | 10 | 5.49 | 4.56 | 22 | 4.51 | 78.6 | 18900 | 0.947 | 3.06 |  |  | CNC(=O)c1cc(Oc2ccc(NC(=O)Nc3ccc(Cl)c(C(F)(F)F)c3)cc2)ccn1 [Comparative example 1, Sorafenib, reference compound]
2 | 1.05 | 5.76 | 3.05 | 4.71 | 3.16 | 18.2 | 2.77 | 82.9 | 56600 | 0.808 | 2.34 | 0.30 | 3010 | Cn1cc(-c2nccc(Oc3ccc(NC(=O)Nc4ccc(Cl)c(C(F)(F)F)c4)cc3)c2Cl)cn1 [Example 2, 1-(4-chloro-3-(trifluoromethyl)phenyl)-3-(4-(3-chloro-2-(1-methyl-pyrazol-4-yl)-pyridin-4-yl-oxy)phenyl)urea]
